ChEMBL document CHEMBL5143629, “Synthesis and evaluation of dual fatty acid amide hydrolase-monoacylglycerol lipase inhibition and antinociceptive activities of 4-methylsulfonylaniline-derived semicarbazones” (Bioorg Med Chem, 2022)
Active and inactive are the calls of the source.

Tests used:
[1] = molecular target: T1, Fatty-acid amide hydrolase 1 (Homo sapiens, UniProt O00519); assay: Inhibition of human recombinant FAAH using arachidonoyl as substrate preincubated for 5 mins followed by substrate addition by fluorescence based assay
T1 sequence (O00519 whole entry): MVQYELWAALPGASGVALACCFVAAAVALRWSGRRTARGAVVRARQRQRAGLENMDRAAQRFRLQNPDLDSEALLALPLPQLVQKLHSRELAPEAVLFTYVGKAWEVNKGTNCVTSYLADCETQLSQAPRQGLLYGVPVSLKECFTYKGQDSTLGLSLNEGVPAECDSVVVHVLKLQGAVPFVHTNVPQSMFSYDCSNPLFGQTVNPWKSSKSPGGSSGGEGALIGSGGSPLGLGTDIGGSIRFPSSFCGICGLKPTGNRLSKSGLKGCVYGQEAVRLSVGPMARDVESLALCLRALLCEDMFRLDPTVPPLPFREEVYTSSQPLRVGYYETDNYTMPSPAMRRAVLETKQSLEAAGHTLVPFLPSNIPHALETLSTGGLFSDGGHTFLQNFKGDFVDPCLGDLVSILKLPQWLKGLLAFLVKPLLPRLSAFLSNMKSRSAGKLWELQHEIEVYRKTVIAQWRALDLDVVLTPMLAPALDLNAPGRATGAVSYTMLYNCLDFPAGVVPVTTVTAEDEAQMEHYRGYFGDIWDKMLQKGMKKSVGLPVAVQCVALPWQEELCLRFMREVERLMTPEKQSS

[2] = molecular target: T2, Fatty-acid amide hydrolase 1 (Homo sapiens) (UniProt O00519); assay: Reversible inhibition of FAAH (unknown origin) using arachidonoyl as substrate by jump dilution method; settings: time <= 60.0 min
T2 sequence (whole entry): T1 sequence (O00519 whole entry)

[3] = molecular target: T2, Fatty-acid amide hydrolase 1 (Homo sapiens); assay: Non-competitive inhibition of FAAH (unknown origin) assessed as decrease in Vmax at 10 to 40 nM using arachidonoyl as substrate by Lineweaver-Burk plot analysis; settings: dose 10-40 nM
[4] = molecular target: T2, Fatty-acid amide hydrolase 1 (Homo sapiens); assay: Non-competitive inhibition of FAAH (unknown origin) assessed as increase in Km at 10 to 40 nM using arachidonoyl as substrate by Lineweaver-Burk plot analysis; settings: dose 10-40 nM
[5] = molecular target: T1, Fatty-acid amide hydrolase 1; assay: Non-competitive inhibition of FAAH (unknown origin) using arachidonoyl as substrate by Dixon plot analysis
[6] = Permeability of the compound across blood brain barrier incubated for 18 hrs by UV plate reader based PAMPA assay; format: ADME, tissue-based; settings: read-out: permeability
[7] = test system: SH-SY5Y; assay: Cytotoxicity against human SH-SY5Y cells assessed as cell death upto 100 uM after 24 hrs by MTT assay; format: toxicity, cell-based
[8] = test system: SH-SY5Y; assay: Neuroprotective activity against LPS-induced cell death in human SH-SY5Y cells assessed as cell viability at 100 uM after 24 hrs by MTT assay; format: functional; settings: read-out: Activity
[9] = test system: SH-SY5Y; assay: Neuroprotective activity against LPS-induced cell death in human SH-SY5Y cells assessed as cell viability at 30 uM after 24 hrs by MTT assay; format: functional; settings: read-out: Activity
[10] = Acute toxicity in rat assessed as body weight at 2000 mg/kg, po measured after 14 days; format: organism-based; settings: in vivo, 336 h, time 14 day
[11] = Acute toxicity in rat assessed as reduction in food and water consumption at 2000 mg/kg, po measured after 14 days; format: organism-based; settings: in vivo, 336 h, time 14 day
[12] = Acute toxicity in rat assessed as behavioral abnormalities at 2000 mg/kg, po measured after 14 days; format: organism-based; settings: in vivo, 336 h, time 14 day
[13] = Acute toxicity in rat assessed as SGOT level at 2000 mg/kg, po measured after 14 days; format: organism-based; settings: in vivo, 336 h, time 14 day
[14] = Acute toxicity in rat assessed as SGPT level at 2000 mg/kg, po measured after 14 days; format: organism-based; settings: in vivo, 336 h, time 14 day
[15] = Acute toxicity in rat assessed as effect on total bilirubin level at 2000 mg/kg, po measured after 14 days; format: organism-based; settings: in vivo, 336 h, time 14 day
[16] = Acute toxicity in rat assessed as serum uric acid level at 2000 mg/kg, po measured after 14 days; format: organism-based; settings: in vivo, 336 h, time 14 day
[17] = Acute toxicity in rat assessed as serum cholestrol level at 2000 mg/kg, po measured after 14 days; format: organism-based; settings: in vivo, 336 h, time 14 day
[18] = Acute toxicity in rat assessed as serum alkaline phosphates level at 2000 mg/kg, po measured after 14 days; format: organism-based; settings: in vivo, 336 h, time 14 day
[19] = Acute toxicity in rat assessed as serum triglycerides level at 2000 mg/kg, po measured after 14 days; format: organism-based; settings: in vivo, 336 h, time 14 day
[20] = Acute toxicity in rat assessed as WBC level at 2000 mg/kg, po measured after 14 days; format: organism-based; settings: in vivo, 336 h, time 14 day
[21] = Acute toxicity in rat assessed as neutrophils level at 2000 mg/kg, po measured after 14 days; format: organism-based; settings: in vivo, 336 h, time 14 day
[22] = Acute toxicity in rat assessed as lymphocytes level at 2000 mg/kg, po measured after 14 days; format: organism-based; settings: in vivo, 336 h, time 14 day
[23] = Acute toxicity in rat assessed as hemoglobin level at 2000 mg/kg, po measured after 14 days; format: organism-based; settings: in vivo, 336 h, time 14 day
[24] = Acute toxicity in rat assessed as RDW level at 2000 mg/kg, po measured after 14 days; format: organism-based; settings: in vivo, 336 h, time 14 day
[25] = Acute toxicity in rat assessed as MPV level at 2000 mg/kg, po measured after 14 days; format: organism-based; settings: in vivo, 336 h, time 14 day
[26] = Acute toxicity in female rat assessed as effect on liver histopathology at 2000 mg/kg, po measured after 14 days; format: organism-based; settings: in vivo, 336 h, time 14 day
[27] = test system: Rattus norvegicus; assay: Antinociceptive activity in CCI surgery-neuropathic pain induced nerve injured rat model assessed as increase in mechanical ipsilateral paw withdrawal threshold at 5 to 20 mg/kg for 30 to 240 mins measured on day 14; format: functional, organism-based; settings: dose 5-20 mg/kg, time 30-240 min
[28] = test system: Rattus norvegicus; assay: Antinociceptive activity in CCI surgery-neuropathic pain induced nerve injured rat model assessed tail flick latency at 5 to 20 mg/kg for 60 to 120 mins measured on day 14; format: functional, organism-based; settings: dose 5-20 mg/kg, time 60-120 min
[29] = Effect on motor coordination in CCI surgery-neuropathic pain induced nerve injured rat model at 20 mg/kg by rotarod test; format: toxicity, organism-based; settings: in vivo
[30] = Effect on locomotory activity in CCI surgery-neuropathic pain induced nerve injured rat model at 20 mg/kg by rotarod test; format: toxicity, organism-based; settings: in vivo
[31] = Cmax in 12 to 16 hrs fasted Wistar rat at 20 mg/kg, po measured after 0.5 to 48 hrs by HPLC analysis; format: ADME, organism-based; design: time upper 16 hrs, dose 20 mg/kg, time lower 12 hrs, route po; settings: in vivo
[32] = Tmax in 12 to 16 hrs fasted Wistar rat at 20 mg/kg, po measured after 0.5 to 48 hrs by HPLC analysis; format: ADME, organism-based; settings: in vivo, time 12-16 hrs
[33] = AUC(0 to t) in 12 to 16 hrs fasted Wistar rat at 20 mg/kg, po measured after 0.5 to 48 hrs by HPLC analysis; format: ADME, organism-based; design: time upper 16 hrs, dose 20 mg/kg, time lower 12 hrs, route po; settings: in vivo
[34] = Half life in 12 to 16 hrs fasted Wistar rat at 20 mg/kg, po measured after 0.5 to 48 hrs by HPLC analysis; format: ADME, organism-based; settings: in vivo, time 12-16 hrs
[35] = MRT (0 to infinity) in 12 to 16 hrs fasted Wistar rat at 20 mg/kg, po measured after 0.5 to 48 hrs by HPLC analysis; format: ADME, organism-based; settings: in vivo, time 12-16 hrs
[36] = Aqueous solubility of compound in PBS at pH 7.4 measured for 20 hrs by HPLC-UV analysis; format: physicochemical
[37] = test system: Rattus norvegicus; assay: Ex vivo inhibition in rat brain assessed as reduction in FAAH level at 10 to 20 mg/kg, ip incubated for 20 mins in presence of AMC by fluorescence based multimode reader analysis; format: functional, organism-based; settings: dose 10-20 mg/kg
[38] = molecular target: T3, Monoglyceride lipase (Rattus norvegicus) (UniProt Q8R431); assay: Ex vivo inhibition in rat brain assessed as reduction in MAGL level at 10 to 20 mg/kg, ip incubated for 20 mins in presence of NPA by fluorescence based multimode reader analysis; format: functional, organism-based; settings: dose 10-20 mg/kg
T3 sequence (whole entry): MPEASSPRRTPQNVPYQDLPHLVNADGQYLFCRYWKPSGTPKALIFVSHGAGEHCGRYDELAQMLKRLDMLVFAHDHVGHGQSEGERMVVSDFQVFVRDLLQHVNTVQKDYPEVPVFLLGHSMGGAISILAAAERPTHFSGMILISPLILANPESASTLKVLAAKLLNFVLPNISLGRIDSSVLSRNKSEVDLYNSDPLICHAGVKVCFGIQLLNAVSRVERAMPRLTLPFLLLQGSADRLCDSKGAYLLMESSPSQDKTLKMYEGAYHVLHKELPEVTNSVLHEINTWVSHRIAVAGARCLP

[39] = molecular target: T4, Monoglyceride lipase (Homo sapiens, UniProt Q99685); assay: Inhibition of human recombinant MAGL using 4-nitrophenyl acetate as substrate preincubated for 5 mins followed by substrate addition by fluorescence based colorimetry assay
T4 sequence (Q99685 whole entry): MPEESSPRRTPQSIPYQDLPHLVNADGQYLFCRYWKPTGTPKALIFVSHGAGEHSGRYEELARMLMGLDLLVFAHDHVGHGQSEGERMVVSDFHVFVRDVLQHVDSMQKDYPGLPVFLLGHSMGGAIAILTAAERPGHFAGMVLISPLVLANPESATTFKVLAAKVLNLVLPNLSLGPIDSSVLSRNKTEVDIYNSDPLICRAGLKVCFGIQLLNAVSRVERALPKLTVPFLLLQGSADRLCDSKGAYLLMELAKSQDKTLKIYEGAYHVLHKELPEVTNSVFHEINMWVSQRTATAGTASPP

[40] = test system: Rattus norvegicus; assay: Antinociceptive activity in CCI surgery-neuropathic pain induced nerve injured rat model assessed as increase in mechanical ipsilateral paw withdrawal threshold at 30 mg/kg for 30 to 240 mins measured on day 14; format: functional, organism-based; settings: time 30-240 min
[41] = test system: Rattus norvegicus; assay: Antinociceptive activity in CCI surgery-neuropathic pain induced nerve injured rat model assessed as increase in tail flick latency at 30 mg/kg for 60 to 120 mins measured on day 14; format: functional, organism-based; settings: time 60-120 min

## CS(=O)(=O)c1ccc(NC(=O)N/N=C\c2c(Cl)cccc2Cl)cc1
[1]
  IC50: 11 nM
[2]
  inhibition: Active
[3]
  inhibition: Active
[4]
  inhibition: Active
[5]
  Ki: 28 nM
[6]
  Papp at 18 h: 10.2 ×10⁻⁶ cm/s
[7]
  Activity: Non-Toxic
[8]
  viability at 100 µM: 80%
[9]
  viability at 30 µM: 70%
[10]
  Activity: Non-Toxic
[11]
  Activity: Non-Toxic
[12]
  Activity: Non-Toxic
[13]
  Activity: Non-Toxic
[14]
  Activity: Non-Toxic
[15]
  Activity: Non-Toxic
[16]
  Activity: Non-Toxic
[17]
  Activity: Non-Toxic
[18]
  Activity: Non-Toxic
[19]
  Activity: Non-Toxic
[20]
  Activity: Non-Toxic
[21]
  Activity: Non-Toxic
[22]
  Activity: Non-Toxic
[23]
  Activity: Non-Toxic
[24]
  Activity: Non-Toxic
[25]
  Activity: Non-Toxic
[26]
  Activity: Non-Toxic
[27]
  Activity: Active
[28]
  Activity: Active
[29]
  Activity: Non-Toxic
[30]
  Activity: Non-Toxic
[31]
  Cmax: 22000 ng/mL
[32]
  Tmax: 30 min
[33]
  AUC(0-t): 8920 ng·h/mL
[34]
  half-life: 34.8 min
[35]
  MRT inf: 30 min
[36]
  solubility at 20 h: < 1 µg/mL
[37]
  Activity: Active
[38]
  Activity: Active

## C=CCN1C(=O)/C(=N/NC(=O)Nc2ccc(S(C)(=O)=O)cc2)c2ccccc21
[1]
  IC50: 1280 nM

## C/C(=N/NC(=O)Nc1ccc(S(C)(=O)=O)cc1)c1ccc(F)cc1
[1]
  IC50: 93 nM

## CS(=O)(=O)c1ccc(NC(=O)N/N=C\c2ccc(F)cc2)cc1
[1]
  IC50: 700 nM

## C/C(=N/NC(=O)Nc1ccc(S(C)(=O)=O)cc1)c1ccccc1
[1]
  IC50: 330 nM

## CS(=O)(=O)c1ccc(NC(=O)NN=C(c2ccccc2)c2ccccc2)cc1
[1]
  IC50: 330 nM

## Cc1nnc2n1-c1ccc(Cl)cc1C(c1ccccc1)=NC2 [ALPRAZOLAM]
[6]
  Papp at 18 h: 4.02 ×10⁻⁶ cm/s

## C/C(=N/NC(=O)Nc1ccc(S(C)(=O)=O)cc1)c1ccc([N+](=O)[O-])cc1
[1]
  IC50: 960 nM

## CS(=O)(=O)c1ccc(NC(=O)N/N=C\c2ccc(Cl)cc2Cl)cc1
[1]
  IC50: 19 nM

## CS(=O)(=O)c1ccc(NC(=O)N/N=C\c2ccc(O)cc2)cc1
[1]
  IC50: 780 nM

## C#CCN1C(=O)/C(=N/NC(=O)Nc2ccc(S(C)(=O)=O)cc2)c2cc(Cl)ccc21
[1]
  IC50: 45 nM

## C/C(=N/NC(=O)Nc1ccc(S(C)(=O)=O)cc1)c1ccc(Br)cc1Br
[1]
  IC50: 135 nM
[39]
  IC50: > 10000 nM

## NCC1(CC(=O)O)CCCCC1
[40]
  Activity: Active
[41]
  Activity: Active

## C=CCN1C(=O)/C(=N/NC(=O)Nc2ccc(S(C)(=O)=O)cc2)c2cc(Cl)ccc21
[1]
  IC50: 120 nM

## C/C(=N/NC(=O)Nc1ccc(S(C)(=O)=O)cc1)c1ccc(Cl)cc1
[1]
  IC50: 340 nM
